According to ChEMBL document CHEMBL1201862, “PubChem BioAssay data set” (2004):
The source made the active and inactive calls.

Legend:
[1] = test system: H4; test: Luminescence Cell-Based Dose Response HTS to Identify Activators of 5'UTR Stem-Loop Driven Prion Protein mRNA Translation in H4 Neuroglioblastoma Cells. [Related pubchem assays: 1829 (Project Summary), 1814 (Primary HTS)]; assay type: functional; settings: Homo sapiens
[2] = Luminescence Cell-Based Dose Response HTS to Identify Activators of Luciferase Translation or Activity in H4 […] Cells. [Related pubchem assays: 1829 (Project Summary), 1814 (Primary HTS)]; assay type: functional
[3] = Luminescence Cell-Based Dose Confirmation HTS to Identify Activators of 5'UTR Stem-Loop Driven Alpha-Synuclein mRNA Translation in H4 Neuroglioblastoma Cells. [Related pubchem assays: 1829 (Project Summary), 1814 (Primary HTS)]; assay type: functional
[4] = target: Cytochrome P450 3A4 (Homo sapiens, UniProt P08684);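 note: CYP3A4 tested as one member of a cytochrome P450 panel screen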
Sequence of Cytochrome P450 3A4 (P08684 whole entry): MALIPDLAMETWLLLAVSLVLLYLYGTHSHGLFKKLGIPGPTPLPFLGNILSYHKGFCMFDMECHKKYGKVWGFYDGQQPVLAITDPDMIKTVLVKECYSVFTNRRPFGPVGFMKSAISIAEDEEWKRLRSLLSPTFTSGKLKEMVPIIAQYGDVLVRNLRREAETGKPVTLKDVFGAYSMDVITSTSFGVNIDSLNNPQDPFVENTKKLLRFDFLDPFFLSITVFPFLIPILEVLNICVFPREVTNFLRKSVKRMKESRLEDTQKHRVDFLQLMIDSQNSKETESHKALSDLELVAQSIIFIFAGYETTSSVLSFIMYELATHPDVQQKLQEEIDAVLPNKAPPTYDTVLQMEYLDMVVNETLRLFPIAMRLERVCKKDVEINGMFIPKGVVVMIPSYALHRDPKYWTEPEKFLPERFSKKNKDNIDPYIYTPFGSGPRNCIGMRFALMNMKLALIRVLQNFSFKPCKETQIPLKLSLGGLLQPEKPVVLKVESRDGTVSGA

[5] = target: Cytochrome P450 2C19 (Homo sapiens, UniProt P33261); test: Cytochrome panel assay with activity outcomes. Panel member name: p450-cyp2c19 Compounds with AC50 equal or less than 10 uM are considered active; assay type: functional; settings: read-out: AC50
Sequence of Cytochrome P450 2C19 (P33261 whole entry): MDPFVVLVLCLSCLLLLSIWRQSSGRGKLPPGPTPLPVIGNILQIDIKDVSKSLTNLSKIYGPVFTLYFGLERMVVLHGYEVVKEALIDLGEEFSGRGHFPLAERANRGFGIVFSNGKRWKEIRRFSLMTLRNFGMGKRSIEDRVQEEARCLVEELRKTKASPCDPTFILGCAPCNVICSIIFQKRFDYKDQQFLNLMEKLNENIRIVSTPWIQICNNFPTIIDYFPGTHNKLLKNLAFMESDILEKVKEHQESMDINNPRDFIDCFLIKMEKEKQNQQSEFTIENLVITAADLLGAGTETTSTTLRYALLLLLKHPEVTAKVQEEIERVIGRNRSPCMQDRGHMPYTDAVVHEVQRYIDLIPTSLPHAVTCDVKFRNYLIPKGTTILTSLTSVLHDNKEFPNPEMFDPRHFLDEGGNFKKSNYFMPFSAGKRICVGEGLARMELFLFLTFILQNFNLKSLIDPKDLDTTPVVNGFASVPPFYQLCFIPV

[6] = target: Cytochrome P450 2D6 (Homo sapiens, UniProt P10635);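 note: CYP2D6 member of a cytochrome P450 panel assay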
Sequence of Cytochrome P450 2D6 (P10635 whole entry): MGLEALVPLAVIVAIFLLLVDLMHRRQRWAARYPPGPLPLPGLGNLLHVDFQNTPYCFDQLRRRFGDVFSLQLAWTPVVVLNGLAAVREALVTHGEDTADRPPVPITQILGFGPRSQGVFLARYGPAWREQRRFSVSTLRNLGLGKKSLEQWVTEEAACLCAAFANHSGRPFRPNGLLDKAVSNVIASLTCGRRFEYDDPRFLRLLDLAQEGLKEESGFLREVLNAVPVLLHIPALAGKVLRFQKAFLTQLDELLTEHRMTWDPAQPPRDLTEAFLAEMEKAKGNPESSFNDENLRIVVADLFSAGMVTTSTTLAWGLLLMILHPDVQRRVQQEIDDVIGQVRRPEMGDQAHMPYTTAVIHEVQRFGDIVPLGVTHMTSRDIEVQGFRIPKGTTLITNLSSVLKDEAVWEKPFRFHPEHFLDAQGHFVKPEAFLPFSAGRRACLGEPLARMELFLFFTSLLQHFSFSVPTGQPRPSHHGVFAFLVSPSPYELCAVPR

[7] = target: T1, Cytochrome P450 1A2 (Homo sapiens, UniProt P05177);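 note: PubChem cytochrome P450 panel assay, CYP1A2 panel member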
T1 sequence (P05177 whole entry): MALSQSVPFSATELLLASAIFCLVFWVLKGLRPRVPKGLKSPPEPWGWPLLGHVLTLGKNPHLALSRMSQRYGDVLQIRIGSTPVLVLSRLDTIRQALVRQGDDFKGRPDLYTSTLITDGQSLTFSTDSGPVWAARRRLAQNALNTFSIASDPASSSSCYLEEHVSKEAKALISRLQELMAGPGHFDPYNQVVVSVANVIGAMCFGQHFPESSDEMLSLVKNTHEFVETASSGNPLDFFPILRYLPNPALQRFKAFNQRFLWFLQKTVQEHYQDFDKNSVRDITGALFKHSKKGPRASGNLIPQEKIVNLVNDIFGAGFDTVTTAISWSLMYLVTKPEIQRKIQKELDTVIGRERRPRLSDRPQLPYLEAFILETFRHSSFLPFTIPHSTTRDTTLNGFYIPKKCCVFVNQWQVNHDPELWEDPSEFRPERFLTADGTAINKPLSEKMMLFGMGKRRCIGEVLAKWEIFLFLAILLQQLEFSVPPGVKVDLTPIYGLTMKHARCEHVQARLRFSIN

[8] = target: Cytochrome P450 2C9 (Homo sapiens, UniProt P11712)
Sequence of Cytochrome P450 2C9 (P11712 whole entry): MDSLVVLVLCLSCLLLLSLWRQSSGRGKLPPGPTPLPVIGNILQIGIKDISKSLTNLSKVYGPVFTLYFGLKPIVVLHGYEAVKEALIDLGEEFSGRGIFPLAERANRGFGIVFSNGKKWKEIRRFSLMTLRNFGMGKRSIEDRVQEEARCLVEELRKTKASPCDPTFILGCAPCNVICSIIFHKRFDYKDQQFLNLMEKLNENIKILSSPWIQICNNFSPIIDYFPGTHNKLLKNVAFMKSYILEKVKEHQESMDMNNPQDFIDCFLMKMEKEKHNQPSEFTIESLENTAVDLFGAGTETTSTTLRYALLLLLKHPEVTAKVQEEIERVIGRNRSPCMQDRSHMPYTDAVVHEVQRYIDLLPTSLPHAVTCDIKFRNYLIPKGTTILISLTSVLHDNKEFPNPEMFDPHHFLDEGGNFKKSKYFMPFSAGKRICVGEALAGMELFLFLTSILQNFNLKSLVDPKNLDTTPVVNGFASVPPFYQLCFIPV

[9] = target: T2, Rac GTPase-activating protein 1 (Homo sapiens, UniProt Q9H0H5); test: MgcRacGAP GTPase-activating activity inhibitors, confirmation, biochemical, ADP Hunter fluorescence, primary and confirmatory (AID 624330); assay type: functional
T2 sequence (Q9H0H5 whole entry): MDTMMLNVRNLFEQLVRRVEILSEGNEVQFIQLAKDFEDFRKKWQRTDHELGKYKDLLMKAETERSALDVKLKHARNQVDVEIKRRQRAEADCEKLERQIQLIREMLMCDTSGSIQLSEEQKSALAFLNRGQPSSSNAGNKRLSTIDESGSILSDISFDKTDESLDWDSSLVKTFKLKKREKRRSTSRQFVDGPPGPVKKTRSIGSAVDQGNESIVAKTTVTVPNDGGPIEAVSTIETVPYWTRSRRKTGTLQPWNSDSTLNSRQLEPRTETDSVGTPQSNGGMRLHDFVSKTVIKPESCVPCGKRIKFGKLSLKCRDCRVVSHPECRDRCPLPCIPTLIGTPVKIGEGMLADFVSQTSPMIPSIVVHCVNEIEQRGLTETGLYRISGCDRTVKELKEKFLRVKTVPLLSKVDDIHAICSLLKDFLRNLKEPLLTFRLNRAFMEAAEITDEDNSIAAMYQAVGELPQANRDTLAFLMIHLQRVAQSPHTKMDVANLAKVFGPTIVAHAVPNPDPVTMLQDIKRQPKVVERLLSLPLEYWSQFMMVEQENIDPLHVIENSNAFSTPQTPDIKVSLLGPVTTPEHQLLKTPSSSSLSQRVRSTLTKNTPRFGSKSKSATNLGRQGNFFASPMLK

[10] = Luminescence Cell-Based Dose Retest to Confirm Inhibitors of Cancer Stem Cells. [Related pubchem assays (depositor defined):AID2717, AID2721]; assay type: functional; settings: Homo sapiens

COc1ccc(C2=C/C(=C\c3ccccc3OC(C)=O)C(=O)O2)cc1
EC50 [1]: 48.4 µM (active)
EC50 [2]: 90 µM (active)
EC50 [3]: 18.6 µM (active)

Clc1cccc(Cl)c1/C=C/c1cc[nH]n1
EC50 [1]: 27 µM (active)
EC50 [2]: 41.2 µM (active)
EC50 [3]: > 120 µM (not active)

COc1ccccc1CNc1cc(-c2c(C)noc2C)ncn1
AC50 [4]: 39.8 µM (inconclusive)
AC50 [5]: 25.1 µM (inconclusive)
AC50 [6]: 25.1 µM (inconclusive)

COC(=O)N1CCC[C@@]2(CCN(C(=O)Nc3cccc(F)c3)C2)C1
AC50 [4]: 12.6 µM (inconclusive)
AC50 [7]: 15.8 µM (inconclusive)
AC50 [8]: 39.8 µM (inconclusive)

O=C(O)c1cc(N/N=C/c2c(O)ccc3ccccc23)ccc1Cl
IC50 [9]: 35.7 µM (active)

COc1cc(/C=N\N=C2/SC(CC(=O)O)C(=O)N2c2ccc(O)cc2)ccc1O (stereo not given)
IC50 [9]: 78.1 µM (active)

Cc1nc(SCC(=O)c2ccc(F)cc2)c([N+](=O)[O-])[nH]1
AC50 [8]: 20 µM (inconclusive)

S=C(NCCN1CCOCC1)Nc1ccc(-c2nc3ccccc3[nH]2)cc1
EC50 [1]: 16.5 µM (active)
EC50 [2]: 10.7 µM (active)
EC50 [3]: 16.3 µM (active)

O=C(O)c1nnsc1-c1ccc(-c2snnc2C(=O)O)cc1
AC50 [8]: 7.94 µM (inconclusive)

C=CCNCC(O)COc1ccc(C(C)=O)cc1OC (stereo not given)
IC50 [9]: 131 µM (active)

CCOC(=O)c1[nH]c(C(=O)O)c(CCN(CC)CC)c1C
AC50 [7]: 39.8 µM (inconclusive)
AC50 [6]: 3.98 µM (inconclusive)

O=C(NCCN1CCOCC1)c1ccc2ccccc2c1
AC50 [7]: 31.6 µM (inconclusive)
AC50 [6]: 15.8 µM (inconclusive)

CC=C(/C(=C/C)c1ccc(O)cc1)c1ccc(O)cc1 [DIENESTROL]
AC50 [7]: 15.8 µM (inconclusive)
AC50 [6]: 15.8 µM (inconclusive)

CCCCNc1ncnc2c1cnn2-c1ccccc1
EC50 [1]: 27.1 µM (active)

Cc1c(C)n(CCc2ccccc2)c2ncnc(NCCCN(C)C)c12
AC50 [10]: 3.51 µM (active)

CC1CCCCC12NC(=O)N(CC(=O)NC(=O)Nc1ccc3c(c1)OCCO3)C2=O (stereo not given)
EC50 [1]: 0.117 µM (active)
EC50 [2]: 0.483 µM (active)
EC50 [3]: 0.111 µM (active)

Cc1nn(-c2ccccc2)c(Cl)c1C(=O)Nc1c(C)n(C)n(-c2ccccc2)c1=O
AC50 [7]: 5.01 µM (inconclusive)
AC50 [8]: 20 µM (inconclusive)

O=C(Nc1ccc(O)c(-c2nc3ccccc3o2)c1)C1(c2ccc(Br)cc2)CCCC1
AC50 [10]: > 195 µM (inactive)

COc1cccc2[nH]c(C(=O)NN)c(N)c12
IC50 [9]: 99.4 µM (active)

CCCOC(=O)c1c(NC(=O)/C=C/c2cnn(C)c2C)sc(C(=O)OCC)c1C
AC50 [4]: 15.8 µM (inconclusive)
AC50 [7]: 17.8 µM (inconclusive)
AC50 [5]: 10 µM (inconclusive)
AC50 [8]: 39.8 µM (inconclusive)

CC1CCc2c(nc3ncnn3c2NCCc2ccccc2F)C1 (stereo not given)
EC50 [1]: > 120 µM (not active)
EC50 [2]: > 120 µM (not active)
EC50 [3]: > 120 µM (not active)

Cc1ccc(C(=O)CSC2=C(C#N)C(c3ccco3)C3=C(O)CC(C)(C)CC3=N2)cc1 (stereo not given)
AC50 [10]: 2.49 µM (active)

CC(C)NC(=O)CSc1nnc(C2CC2)n1-c1ccccc1
AC50 [4]: 25.1 µM (inconclusive)
AC50 [8]: 31.6 µM (inconclusive)

O=C(CCCCn1c(=S)[nH]c2ccsc2c1=O)NCc1ccco1
AC50 [6]: 39.8 µM (inconclusive)

c1ccc(NC2=Nc3ccccc3CC2)cc1
EC50 [1]: > 120 µM (not active)
EC50 [2]: 21.1 µM (active)
EC50 [3]: 10.9 µM (active)

Cc1sc2ncnc(N/N=C/c3ccc(O)cc3)c2c1C
IC50 [9]: 37.6 µM (active)
